Literature values in US20240100062A1, “Methods of Treatment With an Iboga Alkaloid” (priority 2022, published 2024).

Tests used:
[1] = test system: N-methyl-D-aspartate, kappa and mu opioid, sigma-1 and -2, nicotinic acetylcholine, serotonin transporter, and dopamine transporter; details: cited from earlier work
[2] = in vivo; cited from earlier work

## Noribogaine
[1]
  Affinity for neurotransmitter receptors: moderate-to-weak affinity
[2]
  half-life: 28 to 49 h
